Test results: the supplement of paper PMC8149375

Legend:
Settings in all cases: treatment: drug + dasatinib (fixed dose, not stated); 5 days
769-P [1] = test: GI50 of drug in presence of dasatinib; higher = less potent
Experimental: (§1)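 Primary HTS combination arm: 8 RCC cell lines treated with 8 doses (up to 10 uM) of each library drug plus a fixed dose of dasatinib (dose not stated) for 5 days; viability read by CellTiter-Glo and normalised to DMSO. GI50 was fitted with XLfit, AUC is the area under the dose-response curve, and minimum viability is the lowest fraction of DMSO viability across doses.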

786-O [2] = test: as above
Experimental: as §1

A498 [3] = test: as above
Experimental: as §1

ACHN [4] = test: as above
Experimental: as §1

CAKI-1 [5] = test: as above
Experimental: as §1

SN12C [6] = test: as above
Experimental: as §1

TK-10 [7] = test: as above
Experimental: as §1

UO-31 [8] = test: as above
Experimental: as §1

769-P [9] = test: minimum viability across doses, drug + dasatinib, relative to DMSO (fraction); higher = less growth inhibition
Experimental: as §1

786-O [10] = test: as above
Experimental: as §1

A498 [11] = test: as above
Experimental: as §1

ACHN [12] = test: as above
Experimental: as §1

CAKI-1 [13] = test: as above
Experimental: as §1

SN12C [14] = test: as above
Experimental: as §1

TK-10 [15] = test: as above
Experimental: as §1

UO-31 [16] = test: as above
Experimental: as §1

769-P [17] = test: AUC of dose-response viability curve, drug + dasatinib, normalised to DMSO (arbitrary (AUC of normalised viability)); higher = less growth inhibition
Experimental: as §1

786-O [18] = test: as above
Experimental: as §1

A498 [19] = test: as above
Experimental: as §1

ACHN [20] = test: as above
Experimental: as §1

CAKI-1 [21] = test: as above
Experimental: as §1

SN12C [22] = test: as above
Experimental: as §1

TK-10 [23] = test: as above
Experimental: as §1

UO-31 [24] = test: as above
Experimental: as §1

SMILES	GI50 of drug (769-P [1])	GI50 of drug (786-O [2])	GI50 of drug (A498 [3])	GI50 of drug (ACHN [4])	GI50 of drug (CAKI-1 [5])	GI50 of drug (SN12C [6])	GI50 of drug (TK-10 [7])	GI50 of drug (UO-31 [8])	minimum viability across doses (769-P [9])	minimum viability across doses (786-O [10])	minimum viability across doses (A498 [11])	minimum viability across doses (ACHN [12])	minimum viability across doses (CAKI-1 [13])	minimum viability across doses (SN12C [14])	minimum viability across doses (TK-10 [15])	minimum viability across doses (UO-31 [16])	AUC of dose-response viability curve (769-P [17])	AUC of dose-response viability curve (786-O [18])	AUC of dose-response viability curve (A498 [19])	AUC of dose-response viability curve (ACHN [20])	AUC of dose-response viability curve (CAKI-1 [21])	AUC of dose-response viability curve (SN12C [22])	AUC of dose-response viability curve (TK-10 [23])	AUC of dose-response viability curve (UO-31 [24])
COc1cc2ncnc(Nc3ccc(F)c(Cl)c3)c2cc1NC(=O)/C=C/CN1CCCCC1 + Cc1nc(Nc2ncc(C(=O)Nc3c(C)cccc3Cl)s2)cc(N2CCN(CCO)CC2)n1 [dasatinib]	25.5 nM	< 3 nM	2350 nM	< 3 nM	485 nM	567 nM	53.6 nM	1160 nM	0.00783	0.0063	0.0146	0.00207	0.00568	0.00664	0.00803	0.0145	1.25	1.02	2.74	0.908	1.63	1.81	1.46	2.31
C[C@@H](Oc1cc(-c2cnn(C3CCNCC3)c2)cnc1N)c1c(Cl)ccc(F)c1Cl + Cc1nc(Nc2ncc(C(=O)Nc3c(C)cccc3Cl)s2)cc(N2CCN(CCO)CC2)n1 [dasatinib]	2260 nM	798 nM	3260 nM	475 nM	837 nM	748 nM	3550 nM	539 nM	0.0606	0.00845	0.284	0.0735	0.0151	0.175	0.149	0.0115	2.43	2.22	2.68	1.81	1.91	1.98	2.65	2.11
COCC(=O)NC/C=C/c1ccc2ncnc(Nc3ccc(Oc4ccc(C)nc4)c(C)c3)c2c1 + Cc1nc(Nc2ncc(C(=O)Nc3c(C)cccc3Cl)s2)cc(N2CCN(CCO)CC2)n1 [dasatinib]	2130 nM	9120 nM	> 10000 nM	3030 nM	6790 nM	> 10000 nM	3970 nM	> 10000 nM	0.253	0.479	0.925	0.386	0.492	0.632	0.406	0.653	2.18	2.46	3.67	1.88	2.26	2.48	2.41	3.68
CCc1cc2c(cc1N1CCC(N3CCOCC3)CC1)C(C)(C)c1[nH]c3cc(C#N)ccc3c1C2=O + Cc1nc(Nc2ncc(C(=O)Nc3c(C)cccc3Cl)s2)cc(N2CCN(CCO)CC2)n1 [dasatinib]	> 10000 nM	> 10000 nM	> 10000 nM	659 nM	2340 nM	> 10000 nM	5110 nM	7800 nM	0.535	0.614	1.12	0.247	0.311	0.675	0.377	0.0552	2.47	2.35	4.59	1.82	2.04	2.45	2.35	5.15
CN1CCN(c2cccc(Nc3nc4c(-c5ccc(S(C)(=O)=O)cc5)cccn4n3)c2)CC1 + Cc1nc(Nc2ncc(C(=O)Nc3c(C)cccc3Cl)s2)cc(N2CCN(CCO)CC2)n1 [dasatinib]	4170 nM	5280 nM	> 10000 nM	3.78 nM	704 nM	> 10000 nM	1250 nM	3160 nM	0.293	0.443	1.02	0.0965	0.0803	0.246	0.174	0.0195	2.27	2.21	3.99	1.23	1.84	2.37	2.12	3.59
CC(C)(C)c1nc(-c2cccc(NS(=O)(=O)c3c(F)cccc3F)c2F)c(-c2ccnc(N)n2)s1 + Cc1nc(Nc2ncc(C(=O)Nc3c(C)cccc3Cl)s2)cc(N2CCN(CCO)CC2)n1 [dasatinib]	> 10000 nM	30.8 nM	> 10000 nM	134 nM	121 nM	> 10000 nM	563 nM	> 10000 nM	0.55	0.184	1.01	0.113	0.0739	0.684	0.3	0.58	2.36	1.49	4.08	1.51	1.48	2.61	2	3.99
O=C(NOCC1CC1)c1ccc(F)c(F)c1Nc1ccc(I)cc1Cl + Cc1nc(Nc2ncc(C(=O)Nc3c(C)cccc3Cl)s2)cc(N2CCN(CCO)CC2)n1 [dasatinib]	1780 nM	4460 nM	3190 nM	342 nM	1480 nM	1520 nM	4600 nM	2610 nM	0.197	0.431	0.306	0.224	0.13	0.298	0.367	0.174	2.12	2.46	2.51	1.8	2.04	2.07	2.4	2.72
Nc1nc(NCCNc2ncc(-n3ccnc3)c(-c3ccc(Cl)cc3Cl)n2)ccc1[N+](=O)[O-] + Cc1nc(Nc2ncc(C(=O)Nc3c(C)cccc3Cl)s2)cc(N2CCN(CCO)CC2)n1 [dasatinib]	1540 nM	552 nM	9900 nM	1830 nM	1230 nM	7550 nM	1590 nM	1600 nM	0.0308	0.00601	0.474	0.0281	0.0567	0.268	0.0534	0.0119	2.13	1.93	3.68	1.88	2	2.28	2.25	3.5
C#Cc1cccc(Nc2ncnc3cc(OCCOC)c(OCCO)cc23)c1 + Cc1nc(Nc2ncc(C(=O)Nc3c(C)cccc3Cl)s2)cc(N2CCN(CCO)CC2)n1 [dasatinib]	760 nM	> 10000 nM	> 10000 nM	3.94 nM	1010 nM	> 10000 nM	1300 nM	9830 nM	0.301	0.489	0.973	0.108	0.125	0.415	0.323	0.439	2.11	2.72	3.63	1.13	2.09	2.43	2.1	4.6
COCCOc1ccc2c(c1)ncn2-c1ccc2cccc(N3CCC(N)CC3)c2n1 + Cc1nc(Nc2ncc(C(=O)Nc3c(C)cccc3Cl)s2)cc(N2CCN(CCO)CC2)n1 [dasatinib]	1880 nM	683 nM	3200 nM	85.4 nM	471 nM	1690 nM	1810 nM	2910 nM	0.123	0.00646	0.0463	0.0189	0.2	0.041	0.261	0.0088	2.23	1.86	2.84	1.73	1.85	2.36	2.2	3.4
CC1(COc2ccc3c(c2)ncn3-c2ccc3cccc(N4CCC(N)CC4)c3n2)COC1 + Cc1nc(Nc2ncc(C(=O)Nc3c(C)cccc3Cl)s2)cc(N2CCN(CCO)CC2)n1 [dasatinib]	1710 nM	102 nM	2540 nM	1920 nM	928 nM	1280 nM	3330 nM	2230 nM	0.222	0.00575	0.0198	0.0128	0.192	0.0349	0.181	0.0108	1.8	1.64	2.83	1.96	1.9	2.14	2.42	2.77
Cn1cc(C2=C(c3cn(C4CCN(Cc5ccccn5)CC4)c4ccccc34)C(=O)NC2=O)c2ccccc21 + Cc1nc(Nc2ncc(C(=O)Nc3c(C)cccc3Cl)s2)cc(N2CCN(CCO)CC2)n1 [dasatinib]	> 10000 nM	> 10000 nM	> 10000 nM	> 10000 nM	> 10000 nM	> 10000 nM	> 10000 nM	6320 nM	0.571	0.636	0.817	0.566	0.585	0.62	0.667	0.341	2.27	2.71	3.04	2.28	2.2	2.38	2.85	3.35
CCc1cnn2c(NCc3ccc[n+]([O-])c3)cc(N3CCCC[C@H]3CCO)nc12 + Cc1nc(Nc2ncc(C(=O)Nc3c(C)cccc3Cl)s2)cc(N2CCN(CCO)CC2)n1 [dasatinib]	16.7 nM	3.6 nM	11.9 nM	3.94 nM	7.08 nM	11.5 nM	14.1 nM	15.1 nM	0.0174	0.00583	0.00891	0.00901	0.0412	0.0087	0.169	0.0088	0.787	0.357	0.592	0.506	0.562	0.562	1.11	0.771
Cc1nc(Nc2ncc(C(=O)Nc3c(C)cccc3Cl)s2)cc(N2CCN(CCO)CC2)n1 + Cc1nc(Nc2ncc(C(=O)Nc3c(C)cccc3Cl)s2)cc(N2CCN(CCO)CC2)n1 [dasatinib]	38.2 nM	158 nM	8460 nM	26.3 nM	23.6 nM	2300 nM	18.8 nM	65.6 nM	0.0465	0.0726	0.413	0.0702	0.0256	0.422	0.0619	0.0492	1.22	1.71	2.62	1.18	1.03	2.21	1.04	1.44
